Nine molecules from patent US20250263753A1, “BRIDGED CYCLE-BASED INHIBITORS OF DNA-DEPENDENT PROTEIN KINASE AND COMPOSITIONS AND APPLICATION IN GENE EDITING” (Juno Therapeutics, Inc., priority 2023, published 2025) can be followed below.

Where two headings read alike, the source gives them in different places. Bounds are passed on as bounds.

The target of one assay is ATM (Homo sapiens (Human), UniProt Q13315). Description: ATM biochemical assay (Reaction Biology HTRF kinase assay, 10 μM ATP). As for the experimental part:
Ataxia-Telangiectasia Mutated (ATM) Biochemical Assay Using Reaction Biology's HTRF Kinase Assay Protocol:
The assay detects kinase activity by antibody based HTRF assay. The GST-tagged p53 protein serves as substrate and Eu-labeled-antibody with specific phosphorylation site binds upon phosphorylation which is monitored by HTRF from the anti-GST-d2.
Reagent: Reaction buffer; 50 mM Hepes (pH 7.5), 150 mM NaCl, 10 mM MnCl2, 1% Glycerol, 0.01% Brij35, 1 mM DTT, 1% DMSO.
Substrate: Human p53 (aa2-393), RBC produced in E. coli, N-terminal GST-Tag, MW=70.42 kDa.
Detection; MAb Anti-p53-pS15-Eu cryptate, CisBio cat #61P08KAZ; MAb Anti GST-d2
Reaction Procedure: 1. Deliver 2× Enzyme in wells of reaction plate except No E control wells. Add buffer instead; 2. Deliver compounds in 100% DMSO into the kinase reaction mixture by Acoustic technology (Echo550; nanoliter range), incubate for 30 min at room temperature; 3. Deliver 2× substrate+ATP mixture into the reaction mixture to initiate the reaction; 4. Incubate for 2 hours at room temperature.
HTRF Detection: 1. Deliver 2× Stop/Detection mixture and incubate for 2 hours to overnight in the dark. 2. HTRF measurement (Ex/Em1/Em2=320/615/665 nm) in EnVision.
In general terms: TR-FRET usually uses a lanthanide donor and a delayed reading to cut background.

In assay [1] the target is PI3Kα (His-PIK3CA/PIK3R1, p110 alpha/p85 alpha) (Homo sapiens (Human), UniProt P42336). Description: PI3Kα biochemical assay (HTRF/FRET probe). Conditions: class symbol. The assay is classed as binding. The procedure:
Phosphoinositide 3-kinase α (PI3Kα) Biochemical Assay: A solution was prepared containing 0.2 nM Anti-HIS-Terbium (Cisbio, 64CUSTAZU), 3.7 nM designed-probe and 1.0 nM His-PIK3CA/PIK3R1 (p110 alpha/p85 alpha) in FRET Buffer (20 mM HEPES, 10 mM MgCl2, 0.015% Brij-35, 4 mM DTT, 0.05 mg/mL BSA).

The target in another assay is DNA-PK (Homo sapiens (Human), UniProt P78527). Nature of the assay: DNA-PK biochemical assay (Reaction Biology HotSpot kinase assay, 10 μM ATP). As for the experimental part:
DNA-PK Biochemical Assay Using Reaction Biology's HotSpot Kinase Assay Protocol:
Reagent: Base Reaction buffer; 20 mM Hepes (pH 7.5), 10 mM MgCl2, 1 mM EGTA, 0.01% Brij35, 0.02 mg/ml BSA, 0.1 mM Na3VO4, 2 mM DTT, 1% DMSO Required cofactors are added individually to each kinase reaction.
Reaction Procedure: 1. Prepare substrate in freshly prepared Reaction Buffer; 2. Deliver any required cofactors to the substrate solution above; 3. Deliver kinase into the substrate solution and gently mix; 4. Deliver compounds in 100% DMSO into the kinase reaction mixture by Acoustic technology (Echo550; nanoliter range), incubate for 20 min at room temperature; 5. Deliver 33P-ATP into the reaction mixture to initiate the reaction; 6. Incubate for 2 hours at room temperature; 7. Detect kinase activity by P81 filter-binding method.

Assay [2] deals with PI3Kδ (His-PIK3CD/PIK3R1, p110 delta/p85 alpha) (Homo sapiens (Human), UniProt O00329). Nature of the assay: PI3Kδ biochemical assay (HTRF/FRET probe). The assay is classed as binding. As to conditions: class symbol. The procedure:
Phosphoinositide 3-kinase (PI3K) Biochemical Assay: A solution was prepared containing 0.2 nM Anti-HIS-Terbium (Cisbio, 64CUSTAZU), 40 nM designed-probe and 1.0 nM His-PIK3CD/PIK3R1 (p110 delta/p85 alpha) in FRET Buffer (20 mM HEPES, 10 mM MgCl2, 0.015% Brij-35, 4 mM DTT, 0.05 mg/mL BSA).

[3] abbreviates: read-out: DNA-PK HotSpot 10 μM ATP IC50, class symbol.
Where [4] appears, read: read-out: ATM HTRF 10 μM ATP IC50, class symbol.

PI3Kα (His-PIK3CA/PIK3R1, p110 alpha/p85 alpha), sequence (P42336 whole entry, species assumed): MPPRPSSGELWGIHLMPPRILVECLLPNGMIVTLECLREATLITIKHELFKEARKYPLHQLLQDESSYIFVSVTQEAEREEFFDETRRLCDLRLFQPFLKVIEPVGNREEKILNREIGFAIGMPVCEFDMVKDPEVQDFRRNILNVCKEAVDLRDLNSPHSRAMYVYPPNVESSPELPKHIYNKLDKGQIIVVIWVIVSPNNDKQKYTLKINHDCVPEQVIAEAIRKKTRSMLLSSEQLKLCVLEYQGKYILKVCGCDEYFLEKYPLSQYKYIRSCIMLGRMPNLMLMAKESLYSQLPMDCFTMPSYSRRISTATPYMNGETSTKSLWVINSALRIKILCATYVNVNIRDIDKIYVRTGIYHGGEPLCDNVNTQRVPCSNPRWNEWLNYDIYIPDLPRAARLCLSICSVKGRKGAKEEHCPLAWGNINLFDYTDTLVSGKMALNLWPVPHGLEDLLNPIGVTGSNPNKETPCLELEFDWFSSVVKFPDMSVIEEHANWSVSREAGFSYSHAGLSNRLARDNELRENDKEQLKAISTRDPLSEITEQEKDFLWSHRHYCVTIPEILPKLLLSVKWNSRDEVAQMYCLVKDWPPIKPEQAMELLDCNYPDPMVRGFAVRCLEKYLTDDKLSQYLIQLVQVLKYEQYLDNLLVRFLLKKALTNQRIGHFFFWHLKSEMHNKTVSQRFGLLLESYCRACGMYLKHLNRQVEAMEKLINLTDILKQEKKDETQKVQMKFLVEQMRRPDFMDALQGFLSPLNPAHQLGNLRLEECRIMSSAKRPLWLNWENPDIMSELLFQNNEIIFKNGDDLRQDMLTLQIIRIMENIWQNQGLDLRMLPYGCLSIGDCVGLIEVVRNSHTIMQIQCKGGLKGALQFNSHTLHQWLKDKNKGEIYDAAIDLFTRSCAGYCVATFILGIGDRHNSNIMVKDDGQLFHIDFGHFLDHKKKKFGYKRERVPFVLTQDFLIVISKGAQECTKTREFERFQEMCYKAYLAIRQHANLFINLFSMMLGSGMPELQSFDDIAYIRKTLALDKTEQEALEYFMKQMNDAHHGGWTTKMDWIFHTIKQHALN
PI3Kα (His-PIK3CA/PIK3R1, p110 alpha/p85 alpha), sequence (P27986 whole entry partner, species assumed): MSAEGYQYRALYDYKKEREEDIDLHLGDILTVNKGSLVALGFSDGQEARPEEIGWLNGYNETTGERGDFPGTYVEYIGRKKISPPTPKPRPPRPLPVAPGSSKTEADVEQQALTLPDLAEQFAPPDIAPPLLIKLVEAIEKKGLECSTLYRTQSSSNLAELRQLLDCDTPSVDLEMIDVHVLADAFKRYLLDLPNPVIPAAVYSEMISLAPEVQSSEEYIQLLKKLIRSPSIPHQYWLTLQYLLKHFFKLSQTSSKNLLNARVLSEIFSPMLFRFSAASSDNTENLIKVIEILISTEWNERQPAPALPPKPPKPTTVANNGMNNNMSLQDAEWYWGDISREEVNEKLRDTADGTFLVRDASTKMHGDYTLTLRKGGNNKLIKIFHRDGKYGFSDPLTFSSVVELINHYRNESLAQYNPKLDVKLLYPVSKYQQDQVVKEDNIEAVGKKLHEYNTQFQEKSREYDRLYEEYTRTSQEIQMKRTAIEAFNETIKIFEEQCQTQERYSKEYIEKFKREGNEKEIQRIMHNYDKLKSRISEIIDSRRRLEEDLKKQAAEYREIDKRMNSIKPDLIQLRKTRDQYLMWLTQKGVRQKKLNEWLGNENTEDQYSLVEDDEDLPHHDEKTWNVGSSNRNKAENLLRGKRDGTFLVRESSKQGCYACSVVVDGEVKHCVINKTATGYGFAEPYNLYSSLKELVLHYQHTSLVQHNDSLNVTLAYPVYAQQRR
PI3Kδ (His-PIK3CD/PIK3R1, p110 delta/p85 alpha), sequence (O00329 whole entry, species assumed): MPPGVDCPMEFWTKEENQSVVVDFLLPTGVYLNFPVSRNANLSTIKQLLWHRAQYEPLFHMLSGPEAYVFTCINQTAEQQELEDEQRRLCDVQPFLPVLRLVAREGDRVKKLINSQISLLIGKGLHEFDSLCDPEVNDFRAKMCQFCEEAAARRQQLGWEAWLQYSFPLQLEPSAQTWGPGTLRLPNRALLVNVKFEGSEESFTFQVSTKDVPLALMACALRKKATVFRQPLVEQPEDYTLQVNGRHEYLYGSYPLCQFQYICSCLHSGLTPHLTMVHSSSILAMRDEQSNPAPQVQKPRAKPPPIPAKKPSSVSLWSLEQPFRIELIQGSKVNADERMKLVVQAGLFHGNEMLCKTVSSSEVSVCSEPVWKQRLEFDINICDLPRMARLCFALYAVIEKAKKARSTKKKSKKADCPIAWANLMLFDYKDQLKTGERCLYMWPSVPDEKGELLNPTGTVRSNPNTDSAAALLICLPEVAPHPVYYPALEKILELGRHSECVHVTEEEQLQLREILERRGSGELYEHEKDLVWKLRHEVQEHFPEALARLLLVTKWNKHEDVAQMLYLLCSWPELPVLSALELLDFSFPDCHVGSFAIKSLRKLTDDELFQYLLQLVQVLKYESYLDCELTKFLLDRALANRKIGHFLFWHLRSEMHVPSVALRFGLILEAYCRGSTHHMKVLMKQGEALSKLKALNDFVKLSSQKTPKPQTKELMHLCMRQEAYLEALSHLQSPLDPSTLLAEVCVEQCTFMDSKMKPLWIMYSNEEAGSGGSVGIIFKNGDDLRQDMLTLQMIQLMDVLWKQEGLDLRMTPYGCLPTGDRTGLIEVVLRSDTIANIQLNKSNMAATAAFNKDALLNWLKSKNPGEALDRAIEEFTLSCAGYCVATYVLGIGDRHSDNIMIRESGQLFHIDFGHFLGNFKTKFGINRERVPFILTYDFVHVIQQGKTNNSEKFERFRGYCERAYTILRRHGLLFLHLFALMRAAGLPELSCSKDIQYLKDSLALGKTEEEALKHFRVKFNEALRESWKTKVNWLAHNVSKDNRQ
PI3Kδ (His-PIK3CD/PIK3R1, p110 delta/p85 alpha), sequence (P27986 whole entry partner, species assumed): as the sequence (P27986 whole entry partner, species assumed) above

As to `Cc1cc2nsnc2cc1Nc1ncc2c(n1)n(C13CCC(O)(CC1)C3)c(=O)n2C` [Compound 3, 9-(4-hydroxybicyclo[2.2.1]heptan-1-yl)-7-methyl-2-((6-methylbenzo[c][1,2,5]thiadiazol-5-yl)amino)-7,9-dihydro-8H-purin-8-one], the IC50 against ATM (class symbol) is 1 to 10 nM; in assay [1] it was 10 to 100 nM; on DNA-PK (setting [3]), < 1 nM; in assay [2], ≥ 1000 nM.

With `Cc1cc2nccnc2cc1Nc1ncc2c(n1)n(C13CCC(O)(CC1)C3)c(=O)n2C` [Compound 4, 9-(4-hydroxybicyclo[2.2.1]heptan-1-yl)-7-methyl-2-((7-methylquinoxalin-6-yl)amino)-7,9-dihydro-8H-purin-8-one], the IC50 at ATM (class symbol) is 10 to 100 nM; in assay [1], 100 to 1000 nM; on DNA-PK (setting [3]) it was < 1 nM; in assay [2], 100 to 1000 nM.

`Cc1cc2c(cc1Nc1ncc3c(n1)n(C14CCC(O)(CC1)C4)c(=O)n3C)OCCO2` [Compound 5, 9-(4-hydroxybicyclo[2.2.1]heptan-1-yl)-7-methyl-2-((7-methyl-2,3-dihydrobenzo[b][1,4]dioxin-6-yl)amino)-7,9-dihydro-8H-purin-8-one]: the half-maximal inhibitory concentration (IC50) on ATM (class symbol) is 10 to 100 nM; in assay [1], 100 to 1000 nM; at DNA-PK (setting [3]) it was < 1 nM; in assay [2] it was ≥ 1000 nM.

Turning to `COC12CCC(n3c(=O)n(C)c4cnc(Nc5cc6c(cc5C)OCO6)nc43)(C1)C2` [Compound 28, 9-(4-methoxybicyclo[2.1.1]hexan-1-yl)-7-methyl-2-((6-methylbenzo[d][1,3]dioxol-5-yl)amino)-7,9-dihydro-8H-purin-8-one], the values for the IC50 (on ATM (setting [4]); against DNA-PK (class symbol); in assay [2]) were ≥ 1000 nM, 1 to 10 nM and ≥ 1000 nM, respectively.

With `Cc1cc2c(cc1Nc1ncc3c(n1)n(C14CCC(O)(CC1)C4)c(=S)n3C)OCO2` [Compound 32, 9-(4-hydroxybicyclo[2.2.1]heptan-1-yl)-7-methyl-2-((6-methylbenzo[d][1,3]dioxol-5-yl)amino)-7,9-dihydro-8H-purine-8-thione], the values for the IC50 (at ATM (setting [4]); in assay [1]; against DNA-PK (class symbol)) were ≥ 1000 nM, ≥ 1000 nM and 1 to 10 nM, respectively.

As for `Cc1cc(-c2cnn(C)c2)c(F)cc1Nc1ncc2c(n1)n(C13CC(F)(C1)C3)c(=O)n2C` [Compound 38, 2-((5-fluoro-2-methyl-4-(1-methyl-1H-pyrazol-4-yl)phenyl)amino)-9-(3-fluorobicyclo[1.1.1]pentan-1-yl)-7-methyl-7,9-dihydro-8H-purin-8-one], the IC50 against ATM (class symbol) is 10 to 100 nM; against DNA-PK (class symbol), 10 to 100 nM; in assay [2], ≥ 1000 nM.

Consider `Cc1cc2ncccc2cc1Nc1ncc2c(n1)N(C13CCC(O)(CC1)C3)CC(=O)N2C` [Compound 53, 8-{4-Hydroxybicyclo[2.2.1]heptan-1-yl}-5-methyl-2-[(7-methylquinolin-6-yl)amino]-5,6,7,8-tetrahydropteridin-6-one], for which the IC50 is 10 to 100 nM at ATM (class symbol), < 1 nM at DNA-PK (setting [3]) and 10 to 100 nM in assay [2].

As for `Cc1cc2nsnc2cc1Nc1ncc2c(n1)N(C13CC(F)(C1)C3)CC(=O)N2C` [Compound 58, 8-(3-fluorobicyclo[1.1.1]pentan-1-yl)-5-methyl-2-((6-methylbenzo[c][1,2,5]thiadiazol-5-yl)amino)-7,8-dihydropteridin-6(5H)-one], the IC50 at ATM (class symbol) was 100 to 1000 nM; in assay [1], ≥ 1000 nM; at DNA-PK (setting [3]) it was < 1 nM.

For the molecule `Cc1cc2nsnc2cc1Nc1ncc2c(n1)N(C13CCC(O)(CC1)C3)C(=O)C21CC1` [Compound 69, 7′-(4-hydroxybicyclo[2.2.1]heptan-1-yl)-2′-((6-methylbenzo[c][1,2,5]thiadiazol-5-yl)amino)spiro[cyclopropane-1,5′-pyrrolo[2,3-d]pyrimidin]-6′(7′H)-one], the IC50 against ATM (class symbol) is 10 to 100 nM; in assay [1], 10 to 100 nM; on DNA-PK (setting [3]), < 1 nM.

For orientation: IC50 means the point on the concentration scale where inhibition reaches its midpoint.
